The source made the active and inactive calls. The rule behind the calls is not given here.
Biological target: Chaperone protein DnaK (Escherichia coli (strain K12)) (UniProt P0A6Y8)
Assay: binders of DnaK substrate-binding domain, biophysical, NMR, chaperone (AID 1033)
Details: Purified DnaK SBD, NMR ligand binding

Chain of Chaperone protein DnaK (Escherichia coli (strain K12)) (P0A6Y8 whole entry, looked up, the tested form may be a part): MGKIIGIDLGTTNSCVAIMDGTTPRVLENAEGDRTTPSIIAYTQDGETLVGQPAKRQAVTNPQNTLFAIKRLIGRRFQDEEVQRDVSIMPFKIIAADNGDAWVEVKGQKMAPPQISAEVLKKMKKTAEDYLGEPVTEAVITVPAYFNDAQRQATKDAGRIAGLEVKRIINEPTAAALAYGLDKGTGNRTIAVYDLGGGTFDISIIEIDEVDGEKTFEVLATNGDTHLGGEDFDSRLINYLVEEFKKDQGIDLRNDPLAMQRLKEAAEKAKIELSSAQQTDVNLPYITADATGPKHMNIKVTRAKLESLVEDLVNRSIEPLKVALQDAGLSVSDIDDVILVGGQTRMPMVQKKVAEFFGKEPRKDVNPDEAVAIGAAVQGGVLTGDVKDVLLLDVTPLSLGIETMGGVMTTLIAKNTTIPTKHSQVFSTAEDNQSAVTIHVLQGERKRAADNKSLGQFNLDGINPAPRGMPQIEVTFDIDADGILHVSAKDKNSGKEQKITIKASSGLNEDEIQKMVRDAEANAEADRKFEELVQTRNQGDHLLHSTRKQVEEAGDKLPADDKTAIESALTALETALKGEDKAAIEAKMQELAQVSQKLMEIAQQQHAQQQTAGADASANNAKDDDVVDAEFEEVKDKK

SMILES | Kd
COc1ccc(-c2cc(=O)c3c(O)c(OC)c(O[C@H]4O[C@H](CO[C@@H]5O[C@@H](C)[C@H](O)[C@@H](O)[C@H]5O)[C@@H](O)[C@H](O)[C@H]4O)cc3o2)cc1 | > 4 mM (inactive)
Cc1cccc(NC(=O)c2ccccc2C(=O)O)c1 | > 4 mM (inactive)
COc1ccc(C2(CN)CCOCC2)cc1OC | > 4 mM (inactive)
O=C(O)c1cccc(N2C(=O)C3CC=CCC3C2=O)c1 (stereo not given) | > 4 mM (inactive)
FC(F)(F)c1nnc2ccc(N3CCOCC3)nn12 | > 4 mM (inactive)
CN(C)CCNC(CC(=O)Nc1ccccc1)C(=O)O (stereo not given) | > 4 mM (inactive)
CC1C[C@H]2CC(=O)[C@H]3CCCN4CCC[C@H]2[C@]34C1 (stereo not given in full) | > 4 mM (inactive)
O=C(c1ccco1)N1CCCN(C(=O)c2ccco2)CC1 | > 4 mM (inactive)
COC(=O)/C(=C1\OC(=O)C(c2ccccc2)C1=O)c1ccccc1 (stereo not given) | > 4 mM (inactive)
Cc1cc(C)nc(N(C#N)Cc2ccccc2)n1 | > 4 mM (inactive)
CC1SC(=NC(=O)c2ccncc2)NC1=O (stereo not given) | > 4 mM (inactive)
Cc1c(C(=O)Nc2ccncc2)oc2c1C(=O)CC(C)(C)C2 | > 4 mM (inactive)
O=C(O)c1cccnc1-c1nc2ccccc2s1 | > 4 mM (inactive)
CCOC(=O)N1CCCC1c1cccnc1 (stereo not given) | > 4 mM (inactive)
O=c1c2ccccc2nc2n1CCCCN2 | > 4 mM (inactive)
Cn1ncc(C(=O)O)c1-c1ccccc1 | > 4 mM (inactive)
O=C(Cc1cccs1)Nc1nncs1 | > 4 mM (inactive)
O=C(NCC1CCNCC1)c1ccncc1 | > 4 mM (inactive)
N#Cc1nc(-c2ccccc2Cl)oc1N1CCOCC1 | > 4 mM (inactive)
Cc1occc1C(=O)NCc1ccncc1 | > 4 mM (inactive)
O=C(NC1=NCCS1)c1csc2ccccc12 | > 4 mM (inactive)
O=c1ccn(Cc2ccccc2)c(=O)[nH]1 | > 4 mM (inactive)
OCc1cc(F)cc2c1OCOC2 | > 4 mM (inactive)

SMILES | Kd
CC[C@H](CCC(C)[C@H]1CCC2C3CCC4C[C@@H](O)CC[C@]4(C)C3CC[C@@]21C)C(C)C (stereo not given in full) | > 4 mM (inactive)
COc1ccc(/C=C2\SC(N)=NC2=O)cc1 | > 4 mM (inactive)
COC[C@]12CN(C=O)C3[C@@H]4[C@H](OC)C1[C@]3(C1CC3(O)C(OC)C(O)C4(OC(C)=O)C1C3OC(=O)c1ccccc1)[C@@H](OC)C[C@H]2O (stereo not given in full) | > 4 mM (inactive)
O=C(O)CCC(=O)c1c[nH]c2ccccc12 | > 4 mM (inactive)
O=c1ccc2cc(O)c(O)cc2o1 | > 4 mM (inactive)
O=C(Nc1ncccn1)c1cccc(F)c1 | > 4 mM (inactive)
CC(C)=CCOc1cc2oc(=O)ccc2cc1O | > 4 mM (inactive)
COc1ccccc1NC(=O)c1ccc(Br)o1 | > 4 mM (inactive)
Cc1cc(C)nc(/N=C(/N)N2CCN(C)CC2)n1 | > 4 mM (inactive)
CN1CCC(NC(=O)C2CCCO2)CC1 (stereo not given) | > 4 mM (inactive)
CC1=NCCc2c1[nH]c1cc(O)ccc21 | > 4 mM (inactive)
COc1ccc2c(c1)O[C@H]1c3ccc(OC)cc3OC[C@@H]21 | > 4 mM (inactive)
CCN1CCc2c(sc(N)c2C(N)=O)C1 | > 4 mM (inactive)
NCc1cccc2c1OCCO2 | > 4 mM (inactive)
O=C1NCCCC1C(=O)N1CCCCC1 (stereo not given) | > 4 mM (inactive)
N#CCN1C(=O)c2ccccc2S1(=O)=O | > 4 mM (inactive)
Cc1noc(C)c1C(=O)Nc1cccnc1 | > 4 mM (inactive)
O=C(Nc1ccc2c(c1)OCO2)c1cnn2cccnc12 | > 4 mM (inactive)
COCCOc1nc2ccccc2nc1C | > 4 mM (inactive)
CN1CCC(N2CCOCC2)CC1 | > 4 mM (inactive)
CC(=O)Nc1ccccc1OCC(N)=O | > 4 mM (inactive)
CN(C)S(=O)(=O)c1ccccc1C#N | > 4 mM (inactive)
Cn1c(SCCC(=O)O)nnc1-c1cccnc1 | > 4 mM (inactive)

SMILES | Kd
O=C1NC(=O)C(=Cc2ccccc2)C(=O)N1 | > 4 mM (inactive)
CC(=O)O[C@H]1C(=O)[C@@]2(C)C([C@H](OC(=O)c3ccccc3)[C@]3(O)C[C@H](OC(=O)[C@H](O)[C@@H](NC(=O)c4ccccc4)c4ccccc4)C(C)=C1C3(C)C)[C@]1(OC(C)=O)CO[C@@H]1C[C@@H]2O (stereo not given in full) | > 4 mM (inactive)
OCCOc1ccc(C2=NCCO2)cc1 | > 4 mM (inactive)
CC(=O)Nc1ccc(S(=O)(=O)NC(N)=O)cc1 | > 4 mM (inactive)
O=C(O)CNC(=O)c1ccc([N+](=O)[O-])cc1 | > 4 mM (inactive)
Cc1cccnc1NC1=NCC(C)S1 (stereo not given) | > 4 mM (inactive)
O=C(CC1NC(=O)NC1=O)Nc1ccccc1 (stereo not given) | > 4 mM (inactive)
O=C(Nc1nc2c(s1)CCCC2)c1cccnc1 | > 4 mM (inactive)
NC(=O)CSc1nnnn1-c1ccccc1 | > 4 mM (inactive)
CC1(C)NCCN2C(=O)CSC21 (stereo not given) | > 4 mM (inactive)
CCCCCCCCCCCCCCC(C(=O)O)C(O)(CC(=O)OC)C(=O)O (stereo not given) | > 4 mM (inactive)
Cc1nc(SCC(=O)c2c[nH]c3ccccc23)n[nH]1 | > 4 mM (inactive)
Cc1cc(C(=O)Nc2nnc(C(F)(F)F)s2)no1 | > 4 mM (inactive)
CCOC(=O)C(C)c1n[nH]c(=O)c2ccccc12 (stereo not given) | > 4 mM (inactive)
CC(=O)c1ccc(NC(=O)c2ocnc2C)cc1 | > 4 mM (inactive)
C/C=C(\C)C(=O)OC1[C@@H]2C=C3C(CC[C@]4(C)C3CC(=O)O[C@H]4c3ccoc3)C(C)(C2=O)[C@@H](C(O)C(=O)OC)C1(C)C (stereo not given in full) | > 4 mM (inactive)
c1ccc(Cn2c(Nn3cnnc3)nc3ccccc32)cc1 | > 4 mM (inactive)
Cc1cc2c(=O)n(C)c(SCC(N)=O)nc2s1 | > 4 mM (inactive)
CC(=O)c1ccc(-n2ccnc2)cc1 | > 4 mM (inactive)
COc1cc2ccc(=O)oc2c(OC)c1OC | > 4 mM (inactive)
CN(C)C(=O)Oc1cccc(-c2nnco2)c1 | > 4 mM (inactive)
Cc1c(C(=O)OC(C)C)[nH]c2c1C(=O)CCC2 | > 4 mM (inactive)
COc1ccc(-c2oc3cc(O[C@H]4O[C@H](CO)[C@@H](O)[C@H](O)[C@H]4O)c(OC)c(O)c3c(=O)c2OC)cc1O | > 4 mM (inactive)

SMILES | Kd
CCC(C)C(=O)O[C@@H]1C[C@@]2(C)[C@H](c3ccoc3)OC(=O)CC23OC2(C)O[C@]14[C@]1(C)[C@@H](CC(=O)OC)C5(C)CC1(O)[C@](O)(C5OC(=O)C1(C)OC1C)[C@@H](OC(C)=O)[C@]34O2 (stereo not given in full) | > 4 mM (inactive)
COc1cc(S(=O)(=O)N(C)C)ccc1F | > 4 mM (inactive)
Nc1cccc(C(=O)c2ccccc2)c1 | > 4 mM (inactive)
CC(=O)O[C@@H]1CC2C(C)(C)CCC(=O)[C@]2(C)C2CC[C@@]3(C)[C@H](c4ccoc4)OC(=O)C4OC43[C@@]21C (stereo not given in full) | > 4 mM (inactive)
O=C(O)c1ccc(Nc2nncc(=O)[nH]2)cc1 | > 4 mM (inactive)
CC(=O)Nc1ccc(C)cc1NC(C)=O | > 4 mM (inactive)
COc1cc(N)ncn1 | > 4 mM (inactive)
CC1(C(=O)O)CC2C=CC1C2 (stereo not given) | > 4 mM (inactive)
Cc1noc(C)c1C(=O)N1CCc2ccccc2C1 | > 4 mM (inactive)
N#CCSc1nc2ccccc2c(=O)n1-c1ccccc1 | > 4 mM (inactive)
COc1ccc(NC(=O)c2ccc[n+]([O-])c2)cc1 | > 4 mM (inactive)
CCOCC(=O)N1CCc2ccccc21 | > 4 mM (inactive)
C/C(=C\CO)CC[C@H](C)CCC[C@H](C)CCCC(C)C | > 4 mM (inactive)
Cc1ccc2nc(SCCC#N)nc(C)c2c1 | > 4 mM (inactive)
OCC(O)Cc1ccc2c(c1)OCO2 (stereo not given) | > 4 mM (inactive)
CC(=O)NC(=S)Nc1ccc(N(C)C(C)=O)cc1 | > 4 mM (inactive)
CCc1ccc(C(=O)N2CCCC2)s1 | > 4 mM (inactive)
CN(C)N1C(=O)C2C3C=CC(O3)C2C1=O (stereo not given) | > 4 mM (inactive)
COC(=O)C1CCN(c2ccc(Cl)nn2)CC1 | > 4 mM (inactive)
O=c1c2c(nc3nc(Cc4ccccc4)[nH]n13)CCC2 | > 4 mM (inactive)
Cc1ccc(S(=O)(=O)CC(=O)N2CCCC2)cc1 | > 4 mM (inactive)
Cc1cc(O)c2c(c1O)C(=O)c1c(O)cc(C)c(O)c1C2=O | > 4 mM (inactive)
O=C(O)c1cccnc1 | > 4 mM (inactive)

SMILES | Kd
COC(=O)Cc1cc(=O)n(-c2ccccc2)[nH]1 | > 4 mM (inactive)
CC1(C)CC2C1CCC1(C)OC2(C)CCC1O (stereo not given) | > 4 mM (inactive)
COc1c(F)c(F)c(-c2csc(N)n2)c(F)c1F | > 4 mM (inactive)
C=C(C)C1(O)OC(=O)C=C1OC (stereo not given) | > 4 mM (inactive)
CC(=O)Nc1nc(C)nc(-c2ccccc2)c1C(C)=O | > 4 mM (inactive)
CC12CC[C@H](CC1=O)C2(C)C | > 4 mM (inactive)
Nc1ncnc(NCc2cccnc2)c1[N+](=O)[O-] | > 4 mM (inactive)
C=C1C(=O)O[C@@H]2C3OC3(C)CC/C=C(\C)CC[C@@H]12 (stereo not given in full) | > 4 mM (inactive)
c1ccc(-c2nnc(CNCc3ccco3)o2)cc1 | > 4 mM (inactive)
CN1CCn2c1nc(N1CCOCC1)nc2=O | > 4 mM (inactive)
O=C(c1ccncc1)N1CCN(C(=O)c2ccncc2)CC1 | > 4 mM (inactive)
NC1CN2CCC1CC2 (stereo not given) | > 4 mM (inactive)
C=CC(C1=CC(=O)C(OC)=CC1=O)c1ccc(O)cc1 (stereo not given) | > 4 mM (inactive)
Cc1sc2nc(NCCO)[nH]c(=O)c2c1C | > 4 mM (inactive)
Cc1ccc(-n2nnnc2SCC(N)=O)c(C)c1 | > 4 mM (inactive)
NCC(N)C(=O)c1ccccc1 (stereo not given) | > 4 mM (inactive)
Cc1cc(=O)n2nc(-c3ccccc3)sc2n1 | > 4 mM (inactive)
CON(C)C(=O)Nc1ccc(Cl)cc1 | > 4 mM (inactive)
O=C(O)c1c[nH]c2ccccc12 | > 4 mM (inactive)
C[C@]12CCC3C(CC[C@H]4C[C@@H](O)CC[C@]34C)C1CCC2=O (stereo not given in full) | > 4 mM (inactive)
Cc1ccc(=O)[nH]c1 | > 4 mM (inactive)
Cc1cc(C(=O)Nc2sc(C)c(C)c2C#N)no1 | > 4 mM (inactive)
C=CCc1ccc2c(c1)OCO2 | > 4 mM (inactive)
